According to article PMC10584170, “Machine learning-based phenotypic imaging to characterise the targetable biology of Plasmodium falciparum male gametocytes for the development of transmission-blocking antimalarials” (PLOS Pathogens, 2023):
Read-outs that look alike come from different tables or passages of the source.

How the values were obtained:
[1] = tested on: P. falciparum male gametocytes; assay: P. falciparum Dual Gamete Formation Assay (PfDGFA), male readout (exflagellation); type: cell-based, Plasmodium falciparum NF54; details: for Selectivity Ratio M: HepG2 Tox50 versus male IC50; for IC50: read-out: Male IC50; for HitlevelM: number of replicates with >50% inhibition in the male readout
Outline: (§1)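 NF54 mature gametocytes (d14), cpd 24 h 37°C hypoxic gas; trigger: xanthurenic acid ookinete medium + Cy3 anti-Pfs25, 4°C 4 min → 28°C 4 min. Male: exflagellation centres, brightfield x6. Female: Pfs25+ gametes, fluorescence, +24 h 28°C dark.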

[2] = tested on: P. falciparum female gametocytes; assay: P. falciparum Dual Gamete Formation Assay (PfDGFA), female readout (Pfs25-positive female gametes); type: cell-based, Plasmodium falciparum NF54; details: for Selectivity ratio F: HepG2 Tox50 versus female IC50; for IC50: read-out: Female IC50; for HitlevelF: number of replicates with >50% inhibition in the female readout
Outline: as §1

HepG2 cells = assay: HepG2 cytotoxicity counter-screen
[3] = PfDGFA at 2µM, 24h preincubation with gametocytes, average of replicates
[4] = PfDGFA at 2µM, 24h preincubation with gametocytes, replicate R1
[5] = PfDGFA at 2µM, 24h preincubation with gametocytes, replicate R3
[6] = PfDGFA at 2µM, 24h preincubation with gametocytes, replicate R4
[7] = PfDGFA, 24 h incubation with gametocytes before induction, exflagellation readout
[8] = PfDGFA, 24 h incubation with gametocytes before induction, female gamete readout
[9] = cytotoxic activity against HepG2 cells
[10] = 2µM, 24h preincubation with gametocytes prior to induction of gametogenesis, average of replicates
[11] = 2µM, 24h preincubation with gametocytes prior to induction of gametogenesis, replicate R1
[12] = 2µM, 24h preincubation with gametocytes prior to induction of gametogenesis, replicate R3
[13] = 2µM, 24h preincubation with gametocytes prior to induction of gametogenesis, replicate R4

SMILES	Selectivity Ratio M [1]	Average inhibition male (%) [1, 3] [%]	% inhibition male (individual replicates) R1 [1, 4] [%]	% inhibition male (individual replicates) R3 [1, 5] [%]	% inhibition male (individual replicates) R4 [1, 6] [%]	IC50 [1, 7] [µM]	HitlevelM ([1]; 2µM)	Selectivity ratio F [2]	Average inhibition female (%) [2, 3] [%]	% inhibition female (individual replicates) R1 [2, 4] [%]	% inhibition female (individual replicates) R3 [2, 5] [%]	% inhibition female (individual replicates) R4 [2, 6] [%]	IC50 [2, 8] [µM]	HitlevelF ([2]; 2µM)	Tox50 (HepG2 cells; [9]) [µM]	further results
COc1ccc(CCNCCCCCCNCCc2ccc(Cl)cc2)c(Cl)c1OC.Cl [TCMDC-131272]	2.8	69.3	64.8	45.7	90.2	1.76	3	1.14	29.4	25.7	-3.5	29.5	4.35	1	4.93	
C[C@H](Cc1ccc(Oc2ccc(C[C@@H](C)NC[C@H](O)c3cccc(Cl)c3)cc2)cc1)NC[C@H](O)c1cccc(Cl)c1.Cl [TCMDC-131560]	2.05	76.2	79.7	57.0	91.6	1.5	4	1.25	43.2	35.8	26.6	73.1	2.46	1	3.07	
C[C@H](Cc1ccc(OCCCCCOc2ccc(C[C@@H](C)NC[C@H](O)c3cccc(Cl)c3)cc2)cc1)NC[C@H](O)c1cccc(Cl)c1.Cl [TCMDC-131563]	2.4	65.6	66.8	65.3	85.7	1.35	3	1.3	27.5	37.3	14.2	41.5	2.49	0	3.24	
CC[C@H]1CN2CCc3cc(OC)c(OC)cc3[C@@H]2C[C@@H]1C[C@H]1NCCc2c1cc(OC)c(O)c2Cl [TCMDC-131802]						1.91							0.64			Average inhibition male (%) [1, 10]: 54.2%; % inhibition male (individual replicates) R1 [1, 11]: 49.4%; % inhibition male (individual replicates) R3 [1, 12]: 27.8%; % inhibition male (individual replicates) R4 [1, 13]: 72.9%; HitlevelM ([1]; 2µM, 24h preincubation): 2; Average inhibition female (%) [2, 10]: 66.5%; % inhibition female (individual replicates) R1 [2, 11]: 51.1%; % inhibition female (individual replicates) R3 [2, 12]: 66.5%; % inhibition female (individual replicates) R4 [2, 13]: 85.4%; HitlevelF ([2]; 2µM, 24h preincubation): 4; Tox50 (HepG2 cells): 1.67 µM
Br.CC[C@H]1CN2CCc3cc(OC)c(OC)cc3[C@@H]2C[C@@H]1C[C@H]1NCCc2c1cc(OC)c(O)c2I [TCMDC-131829]	7.59						4	21.58						4	6.35	IC50 ([1]; Plasmodium falciparum, 24 h): 0.84 µM; inhibition at 2 µM ([1]; Plasmodium falciparum, read-out: % inhibition male (individual replicates) R1): 84.6%; inhibition at 2 µM ([1]; Plasmodium falciparum, read-out: % inhibition male (individual replicates) R2): 83.8%; inhibition at 2 µM ([1]; Plasmodium falciparum, read-out: % inhibition male (individual replicates) R3): 88.6%; inhibition at 2 µM ([1]; Plasmodium falciparum, read-out: % inhibition male (individual replicates) R4): 95.7%; inhibition at 2 µM ([1]; Plasmodium falciparum, read-out: Average inhibition male (%)): 88.2%; IC50 ([2]; Plasmodium falciparum, 24 h): 0.29 µM; inhibition at 2 µM ([2]; Plasmodium falciparum, read-out: % inhibition female (individual replicates) R1): 83.8%; inhibition at 2 µM ([2]; Plasmodium falciparum, read-out: % inhibition female (individual replicates) R2): 92.3%; inhibition at 2 µM ([2]; Plasmodium falciparum, read-out: % inhibition female (individual replicates) R3): 106%; inhibition at 2 µM ([2]; Plasmodium falciparum, read-out: % inhibition female (individual replicates) R4): 88.5%; inhibition at 2 µM ([2]; Plasmodium falciparum, read-out: Average inhibition female (%)): 92.8%
N=C(N)NCCN(Cc1ccccc1)c1ccc(Cl)cc1 [TCMDC-131838]	72.58							7.49							48.68	inhibition at 2 µM ([1]; Plasmodium falciparum, 2µM, 24h preincubation with gametocytes, average of replicates, read-out: Average inhibition male (%)): 98.3%; inhibition at 2 µM ([1]; Plasmodium falciparum, 2µM, 24h preincubation with gametocytes, replicate R1, read-out: % inhibition male (individual replicates) R1): 96.5%; inhibition at 2 µM ([1]; Plasmodium falciparum, 2µM, 24h preincubation with gametocytes, replicate R2, read-out: % inhibition male (individual replicates) R2): 98.5%; inhibition at 2 µM ([1]; Plasmodium falciparum, 2µM, 24h preincubation with gametocytes, replicate R3, read-out: % inhibition male (individual replicates) R3): 97.4%; inhibition at 2 µM ([1]; Plasmodium falciparum, 2µM, 24h preincubation with gametocytes, replicate R4, read-out: % inhibition male (individual replicates) R4): 101%; IC50 ([1]; Plasmodium falciparum, PfDGFA, 24 h incubation with gametocytes before induction, exflagellation readout): 0.67 µM; inhibition at 2 µM ([2]; Plasmodium falciparum, 2µM, 24h preincubation with gametocytes, average of replicates, read-out: Average inhibition female (%)): 61.5%; inhibition at 2 µM ([2]; Plasmodium falciparum, 2µM, 24h preincubation with gametocytes, replicate R1, read-out: % inhibition female (individual replicates) R1): 40.2%; inhibition at 2 µM ([2]; Plasmodium falciparum, 2µM, 24h preincubation with gametocytes, replicate R2, read-out: % inhibition female (individual replicates) R2): 88.5%; inhibition at 2 µM ([2]; Plasmodium falciparum, 2µM, 24h preincubation with gametocytes, replicate R3, read-out: % inhibition female (individual replicates) R3): 50%; inhibition at 2 µM ([2]; Plasmodium falciparum, 2µM, 24h preincubation with gametocytes, replicate R4, read-out: % inhibition female (individual replicates) R4): 67.4%; IC50 ([2]; Plasmodium falciparum, PfDGFA, 24 h incubation with gametocytes before induction, female gamete readout): 6.5 µM
COc1cc2nc(NCCCN3CCCCC3)nc(NCc3ccccc3)c2cc1OC [TCMDC-132012]	5.75	71.6	87.9	87.5	91.8	1.89	3	1.71	56.5	53.1	57.0	64.1	6.34	4	10.87	
CCc1c(CCNCCCCCCNC(C)(C)Cc2ccc3c(c2CC)OCO3)ccc(OC)c1OC.Cl [TCMDC-132055]	2.57	75.9	71.0	61.7	83.6	1.38	4	0.81	27.4	20.6	-1.3	28.0	4.4	1	3.55	
